# System: CART19 cells
# Assay: RNA sequencing of CART19 cells with Ingenuity pathway analysis (pathways, upstream regulators)
# Type: cell-based, human
# Settings: for Expr Log Ratio / Activation Z-Score / Predicted Activation State: 30 nM, 24 hours vs vehicle
# Method: CART19 cells were isolated using CD4 and CD8 microbeads to […] the JeKo-1 target cells; this isolation step was performed twice to eliminate the possible contamination of JeKo-1 cells. RNA was isolated from the CART19 cells using QIAGEN RNEASY® Plus Mini Kit. RNA was further treated with DNase I (QIAGEN) and purified using RNA Clean & Concentrator (Zymo Research). […] The fastq files were viewed in FastQC to check for quality (Cox et al., Mol Ther., 29 (4): 1529-1540, 2020). After verifying the lack of adapter sequences with FastQC, Cutadapt (Martin, EMBnet, 17:10-12, 2011) was used to filter for reads greater than 32 base pairs. Output files were re-checked for quality using FastQC. The latest human reference genome (GRCh38.p13) was downloaded from NCBI. Genome index files were generated using STAR (Cox et al. 2020, supra, and Dobin et al., Bioinformatics, 29:15-21, 2012). Paired end reads from fastq files were mapped to the genome for each condition. HTSeq was used to generate expression counts for each gene (Cox et al. 2020, supra; and Putri et al., Bioinformatics, 38:2943-2945, 2022). […] The disruption efficiency of the CRISPR/Cas9 GM-CSF knockout was determined using targeted sequencing through PCR and TIDE analysis (software available at tide.nki.nl) as described elsewhere (Sakemura et al. 2021, supra).
# RNA sequencing of CART19 cells was then performed. […] Data were analyzed with the use of QIAGEN Ingenuity Pathway Analysis (IPA) (digitalinsights.qiagen.com/IPA; Krämer et al., Bioinformatics 30 (4): 523-530, 2014).
# [1] = CART19+JeKo-1, 30 nM TP-0903 vs vehicle, 24 h
# [2] = CART19+JeKo-1, 30 nM TP-0903 vs vehicle, 24 h, flag bias
# [3] = Upstream Regulator BRD4 (second entry, r376)
structure (smiles),measurement,setting,value
"CN1CCN(Cc2ccc(Nc3ncc(Cl)c(Nc4ccccc4S(=O)(=O)N(C)C)n3)cc2)CC1 [TP-0903, Dubermatinib]",upstream regulator SREBF1 Predicted Activation State,[1],inhibited
same,upstream regulator SREBF2 Activation Z-Score,[1],−1.433
same,upstream regulator SUCNR1 Activation Z-Score,[1],0
same,upstream regulator TEAD3 Activation Z-Score,[1],−1.633
same,upstream regulator TERT Activation Z-Score,[1],−1.412
same,upstream regulator TGFB1 Activation Z-Score,[1],−1.429
same,upstream regulator TGFB3 Activation Z-Score,[1],−0.894
same,upstream regulator TGFBR2 Activation Z-Score,[1],0.658
same,upstream regulator TLR2 Activation Z-Score,[1],−1.417
same,upstream regulator TLR7 Predicted Activation State,[1],inhibited
same,upstream regulator TNFRSF4 Activation Z-Score,[1],−1.098
same,upstream regulator TNFSF15 Activation Z-Score,[1],−0.425
same,upstream regulator TRAF3 Activation Z-Score,[1],−0.656
same,upstream regulator TREM1 Activation Z-Score,[1],−0.093
same,upstream regulator VEGF Activation Z-Score,[1],−0.81
same,upstream regulator WNT1 Activation Z-Score,[1],−1.387
same,upstream regulator YAP1 Activation Z-Score,[1],0.591
same,upstream regulator COMMD1 Activation Z-Score,[2],2
same,upstream regulator CSF Activation Z-Score,[2],−0.816
same,upstream regulator EGLN Activation Z-Score,[2],1.793
same,upstream regulator IKZF2 Activation Z-Score,[2],0.447
same,upstream regulator MIR-17-5P (AND OTHER MIRNAS W/SEED AAAGUGC) Activation Z-Score,[2],1.449
same,upstream regulator MIR-450A-5P (AND OTHER MIRNAS W/SEED UUUGCGA) Activation Z-Score,[2],2.236
same,upstream regulator MLXIPL Activation Z-Score,[2],−3.101
same,upstream regulator PAF1 Activation Z-Score,[2],0.762
same,upstream regulator TLR7 Activation Z-Score,[2],−2
same,upstream regulator TPH1 Activation Z-Score,[2],−1.89
same,Expr Log Ratio,Upstream Regulator ADAM8,−0.008
same,Activation Z-Score,Upstream Regulator ADRB,1.616
same,Activation Z-Score,Upstream Regulator AHR,−0.104
same,Expr Log Ratio,Upstream Regulator AHR,−0.083
same,Activation Z-Score,Upstream Regulator AKT,−2.79
same,Predicted Activation State,Upstream Regulator AKT,inhibited
same,Activation Z-Score,Upstream Regulator AREG,−2.287
same,Expr Log Ratio,Upstream Regulator AREG,1.429
same,Predicted Activation State,Upstream Regulator AREG,inhibited
same,Activation Z-Score,Upstream Regulator BHLHE40,−0.158
same,Expr Log Ratio,Upstream Regulator BHLHE40,0.043
same,Expr Log Ratio,Upstream Regulator BIRC5,−0.028
same,Activation Z-Score,Upstream Regulator BNIP3L,−1.463
same,Expr Log Ratio,Upstream Regulator BNIP3L,−0.47
same,Activation Z-Score,"Upstream Regulator BRD4 (first entry, r300, no Expr Log Ratio)",−0.213
same,Activation Z-Score,[3],−2.16
same,Expr Log Ratio,[3],−0.067
same,Predicted Activation State,[3],inhibited
same,Activation Z-Score,Upstream Regulator CASP8,1.72
same,Expr Log Ratio,Upstream Regulator CASP8,0.141
same,Activation Z-Score,Upstream Regulator CD3,−1.272
same,Activation Z-Score,Upstream Regulator CD40,−0.284
same,Expr Log Ratio,Upstream Regulator CD40,−0.283
same,Activation Z-Score,Upstream Regulator CDKN2A,0.421
same,Expr Log Ratio,Upstream Regulator CDKN2A,−0.27
same,Activation Z-Score,Upstream Regulator CREB1,−0.611
same,Expr Log Ratio,Upstream Regulator CREB1,−0.112
same,Activation Z-Score,Upstream Regulator CREM,0.286
same,Expr Log Ratio,Upstream Regulator CREM,0.351
same,Activation Z-Score,Upstream Regulator CSF1,−1.71
same,Expr Log Ratio,Upstream Regulator CSF1,−0.377
same,Activation Z-Score,Upstream Regulator CSF2,−2.255
same,Expr Log Ratio,Upstream Regulator CSF2,−0.066
same,Predicted Activation State,Upstream Regulator CSF2,inhibited
same,Activation Z-Score,Upstream Regulator CTNNB1,−2.082
same,Expr Log Ratio,Upstream Regulator CTNNB1,−0.154
same,Predicted Activation State,Upstream Regulator CTNNB1,inhibited
same,Activation Z-Score,Upstream Regulator DDIT4,−0.816
same,Expr Log Ratio,Upstream Regulator DDIT4,−0.248
same,Activation Z-Score,Upstream Regulator EGF,−1.744
same,Expr Log Ratio,Upstream Regulator EIF2S1,0.079
same,Activation Z-Score,Upstream Regulator ELAVL1,−1.431
same,Expr Log Ratio,Upstream Regulator ELAVL1,0.045
same,Activation Z-Score,Upstream Regulator EPAS1,−0.365
same,Expr Log Ratio,Upstream Regulator EPAS1,−0.784
same,Activation Z-Score,Upstream Regulator ETS1,−1.485
same,Expr Log Ratio,Upstream Regulator ETS1,0.129
same,Activation Z-Score,Upstream Regulator FOXP3,1.094
same,Expr Log Ratio,Upstream Regulator FOXP3,−0.21
same,Expr Log Ratio,Upstream Regulator GNAQ,−0.381
same,Activation Z-Score,Upstream Regulator GNAS,0.898
same,Expr Log Ratio,Upstream Regulator GNAS,0.075
same,Activation Z-Score,Upstream Regulator HDL-CHOLESTEROL,1.89
same,Activation Z-Score,Upstream Regulator HIF1A,−1.763
same,Expr Log Ratio,Upstream Regulator HIF1A,0.181
same,Activation Z-Score,Upstream Regulator HRAS,−1.187
same,Activation Z-Score,Upstream Regulator ID2,1.609
same,Expr Log Ratio,Upstream Regulator ID2,0.114
same,Activation Z-Score,Upstream Regulator IFN BETA,−0.892
same,Activation Z-Score,Upstream Regulator IFNG,−2.044
same,Expr Log Ratio,Upstream Regulator IFNG,−0.559
same,Predicted Activation State,Upstream Regulator IFNG,inhibited
same,Activation Z-Score,Upstream Regulator IGG,1.765
same,Activation Z-Score,Upstream Regulator IL1B,−1.164
same,Expr Log Ratio,Upstream Regulator IL1B,0.19
same,Activation Z-Score,Upstream Regulator IL2,−1.669
same,Expr Log Ratio,Upstream Regulator IL2,−0.397
same,Activation Z-Score,Upstream Regulator IL3,−1.125
same,Expr Log Ratio,Upstream Regulator IL3,−0.843
same,Activation Z-Score,Upstream Regulator IL4,−3.271
same,Expr Log Ratio,Upstream Regulator IL4,−1.068
same,Predicted Activation State,Upstream Regulator IL4,inhibited
same,Activation Z-Score,Upstream Regulator IL5,−1.165
same,Expr Log Ratio,Upstream Regulator IL5,−1.157
same,Activation Z-Score,Upstream Regulator IL6,−2.441
same,Expr Log Ratio,Upstream Regulator IL6,−1.319
same,Predicted Activation State,Upstream Regulator IL6,inhibited
same,Activation Z-Score,Upstream Regulator IL13,−1.489
same,Expr Log Ratio,Upstream Regulator IL13,0
same,Activation Z-Score,Upstream Regulator IL17A,0.354
same,Expr Log Ratio,Upstream Regulator IL17A,−0.356
same,Activation Z-Score,Upstream Regulator IL33,−1.508
same,Activation Z-Score,Upstream Regulator IMMUNOGLOBULIN,0.465
same,Expr Log Ratio,Upstream Regulator ITGA11,−0.167
same,Activation Z-Score,"Upstream Regulator ITGA11, flag bias",−1
same,Activation Z-Score,Upstream Regulator KLF11,−2.333
